Measurements reported in patent US6645501B2, “Anti-pathogen system and methods of use thereof” (Washington University, priority 1997, dated 2003).
“Also recorded” adds a separate entry of the source.

B1: TAT-A-p16: HIV A (p17-p24) cleavage site inserted between the TAT and p16 domains (protein)
chain: GRKKRRQRRRGSQVSQNYPIVQNLQMEPAAGSSMEPSADWLATAAARGRVEEVRALLEAGALPNAPNSYGRRPIQVMMMGSARVAELLLLHGAEPNCADPATLTRPVHDAAREGFLDTLVVLHRAGARLDVRDAWGRLPVDLAEELGHRDVARYLRAAAGGTRGSNHARIDAAEGPSDIPD
modifications: left off: small tags and cut ends
notes: HIV A (p17-p24) cleavage site inserted between the TAT and p16 domains
B2: TAT-CPP32 mutant (protein)
chain: GRKKRRQRRRGYPYDVPDYACTERQANFLGKIWPGISLDNSYKMDYPEMGLCIIINNKNFHKSTGMTSRSGTDVDAANLRETFRNLKYEVRNKNDLTREEIVELMRDVSKEDHSKRSSFVCVLLSHGEEGIIFGTNGPVDLKKITNFFRGDRCRSLTGKPKLFIIQAMRGTELDCGIETSQVSQNYPIVQNLQGVDDDMACHKIPVEADFLYAYSTAPGYYSWRNSKDGSWFIQSLCAMLKQYADKLEFMHILTRVNRKVATEFESFSFDATFHAKKQIPCIVSMLTKELYFYH
modifications: left off: small tags and cut ends
B3: TAT-Dp16: TAT-p16 fusion protein containing the HIV D (p7-p1) cleavage site (protein)
chain: GRKKRRQRRRGCTERQANFLGKIWPMEPAAGSSMEPSADWLATAAARGRVEEVRALLEAGALPNAPNSYGRRPIQVMMMGSARVAELLLLHGAEPNCADPATLTRPVHDAAREGFLDTLVVLHRAGARLDVRDAWGRLPVDLAEELGHRDVARYLRAAAGGTRGSNHARIDAAEGPSDIPD
modifications: left off: small tags and cut ends
notes: TAT-p16 fusion protein containing the HIV D (p7-p1) cleavage site

Tests used:
Type in all cases: cell-based
Jurkat T-cells = assay: Transduction of FITC-labeled synthetic peptides into Jurkat T-cells (rate and intracellular concentration versus TAT); details: for Intracellular Concentration / Rate Compared to TAT: FITC-labeled peptide, Jurkat T-cells; for Intracellular Concentration: at equilibrium, relative to the TAT peptide; for Rate Compared to TAT: sign relative to TAT
Protocol: The following artificial (i.e. synthetic) peptides were made by conventional peptide synthesis as described above. A goal of this experiment was to produce transduction domains that could transduce more effectively as judged by the intracellular concentration in transduced cells. The transduction domains were tested against a suitable control, which typically was the “natural” TAT or an Antp transduction domain. Briefly, a FITC group was synthetically attached to N-terminus of 100% of each peptide so that transduction rate and intracellular concentration of each peptide could be quantified at equilibrium. The TAT transduction domain is recognized to be alpha-helical. In each synthetic peptide sequence, an alpha-helix was modeled with varying amounts of Arg on one face. That is, a series of synthetic peptides was designed that contained varying amounts of Arg residues on one surface and substituted with Ala residues. Both Ala and Arg residues have the highest probability/energetics for maintaining an alpha-helical structure. See FIG. 7, which depicts each peptide as a helical wheel projection. The peptides are shown below in Table 2.
The synthetic peptides were transduced into Jurkat T-cells along lines described above in Example 4.

[1] = system: Jurkat T cells infected with the NLHX strain of HIV-I; assay: Cytotoxicity of TAT-Casp3 on HIV infected Jurkat cultures, exclusionary dye viability analysis; details: 1 μg/ml Ritonavir prior to 100 nM TAT-Casp3WT
Source text: To make this determination, Jurkat T cells were infected for 7-14 days with the NLHX strain of HIV-I and examined microscopically for HIV cytopathic effects. See Westervelt, P., et al., Identification of a determinant within the HIV-1 surface envelope glycoprotein critical for productive infection of cultured primary monocytes. Proc. Natl. Acad. Sci USA 88: 3097 (1991). At the start of each transduction experiment approximately 50% of the culture was HIV positive. HIV infected cultures were transduced for 16 hr with 100 nM TAT-Casp3WT or TATCasp3MUT protein and then assayed for cell viability (FIG. 13). […] In addition, we detected both the appearance of cells containing <2N DNA content and cells with condensed nuclei in TAT-Casp3 treated cells.
To determine if TAT-Casp3WT induced apoptosis was dependent on active HIV Protease in the infected cultures, HIV infected cultures were pretreated with 1 μg/ml Ritonavir prior to transduction with 100 nM TAT-Casp3WT protein (FIG. 5). […] In addition, the observed increased survival of Ritonavir treated cells is consistent with increased longevity of protease inhibitor treated HIV infected cells. See Coffin, J. M., et al. (supra).
The specific killing of HIV infected cells shown in FIG. 5 is explained in more detail as follows. Jurkat T cells were infected for 7-14 days with HIV strain NLHX, then transduced with TAT-Casp3WT (WT) or TAT-Casp3MUT (MUT) proteins for 16 hr and assayed for cell viability. […] Ctrl, control addition of PBS to cultures; abscissa, % viability of HIV positive cells in the population at start of transduction; error bars represent SD.
(§1) 1. […] See Lissy, N. A., et al. (supra). […] See Ezhevsky, S. A., et al. (supra). […] See Xiang, J., et al., (supra). […] See Xiang, J., et al., (supra). […] See Ezhevsky, S. A., et al. (supra).

Jurkat T cells [2] = assay: Co-transduction of uninfected Jurkat T cells with TAT-CPP32 and TAT-Protease, survival by trypan-blue exclusionary dye microscopy
Protocol: To test for activation of the TAT-CPP32 by TAT-Protease, 2×10^6 Jurkat T cells were placed in 2 ml of culture (RPMI media). To these cells, various combinations of control and experimental transducible proteins were added in 50-100 nM ranges, as follows:
The cells were assayed for survival at 18 hr post-addition by trypan-blue exclusionary dye microscopy. […] Thus, activation of TAT-CPP32 requires the presence of HIV protease.

[3] = system: Jurkat T-cells infected by HIV (strain NLHX); assay: Killing of HIV-infected Jurkat T-cells, trypan blue exclusion and microscopy
Protocol: About 5×10^6 Jurkat T-cells were infected by HIV (strain NLHX; about 1×10^5 to 1×10^6 infectious virus per ml). The cells were propagated in RPMI media. Approximately 4 to 7 days after the infection, the media was removed from the plates and about 35 to 45 nanomoler of the TAT-CPP32 fusion protein was added to the cells. The cells were incubated with the fusion proteins for about 30 minutes to allow transduction into the cells. […] Subsequently, media was added back to the plates and after about 18 hours post-transduction, the cells were examined for cell killing using conventional trypan blue exclusion and microscopy.
Briefly, cells were infected and transduced as described in Example 6 above. Following the transduction, about 1 μg/ml Ritonavir was added to the cell media and allowed to incubate with the cells for about 18 hours. The cells were then assayed for cell killing by conventional trypan blue exclusion and microscopy. […]

Jurkat T cells [4] = assay: FACS and confocal analysis of FITC-labeled TAT fusion proteins added to Jurkat T cells; details: FITC-labeled protein added to media of Jurkat T cells
Protocol: To test the ability of TAT-Casp3 proteins to transduce into cells, TAT-Casp3 proteins were conjugated to fluorescein (FITC), then added directly to the media of Jurkat T cells and analyzed by Flow Cytometry (FACS) (FIGS. 9B-C). Both TAT-Casp3WT and TAT-Casp3MUT proteins rancidly transduced into ˜100% of cells, achieving maximum intracellular concentration in less than 20 min. In addition, based on the narrow peak width before and after addition of FITC labeled proteins, individual cells within the population contain near identical intracellular concentrations of TAT-Casp3-FITC protein. […] Thus, TAT-Casp3 proteins readily transduce into 100% of all cells inca rapid and concentration-dependent fashion.
The generation and transduction of TAT fusion proteins shown in FIGS. 9A-E are explained in more detail as follows: FIG. 9A. Diagram depicting HIV cleavage site sequences and domains of TAT fusion proteins. FIGS. 9B-D. FACS kinetic analysis of fluorescein (FITC) labeled TAT-Casp3WT, TAT-Casp3MUT and TAT-HIV Pr proteins added to cells at 0, 20 and 30 min. FIG. 9E. FACS dose analysis of 3, 6, and 12 nM TAT-Casp3WT-FITC protein added to cells at I hr post-addition. Note rapid, concentration-dependent transduction of all FITC labeled protein into ˜100% of cells and near identical intracellular concentration within the population as measured by FACS peak width of control vs. transduced cells.
as §1

HIV Protease = target: T1, HIV Protease (Human immunodeficiency virus type 1 group M subtype B, UniProt P04585); assay: In vivo substrate cleavage by co-transduced TAT-HIV Pr in Jurkat T cells, immunoblot
T1 construct: PCR cloning the HIV Protease gene from HXB2R HIV strain; 6xHis (from the pTAT vector) (N); made in house; the purified protein was added to Jurkat T cells
Protocol: To assay for in vivo cleavage, p 16(−) Jurkat T cells were transduced with 100 nM TAT-Ap16 or control TAT-p16 protein (no HIV cleavage site) alone or in combination with 50 nM TATHIV Pr fusion protein for 5 hr and analyzed by anti-p16 immunoblot for in vivo cleavage at the HIV A proteolytic cleavage site (FIG. 10A). […] Size analysis of the cleaved TAT-A-p 16 protein was consistent with retention of the residual HIV half site present on the N′ terminus of p 16 (FIG. 10A, see lane 4 vs. 5).
Further, the TAT-Casp3MUT protein was transduced in combination with TAT-HIV Pr protein into cells (FIG. 10B).
The in vivo processing in co-transduced cells shown in FIGS. 10A and 10B is explained in more detail as follows. FIG. 10A. Cultures of p16(−) Jurkat T cells were transduced with TAT-p 16 or TAT-A-p 16 substrate proteins in combination with TATHIV Pr proteins for 5 hr and subjected to anti-p 16 immunoblot analysis. […] WCE, HepG2 whole cell lysate containing wild type endogenous p16; A-p16, cleaved TAT-A-16 product retaining the HIV half site on p16. FIG. 10B. Cultures of Jurkat T cells were transduced with TATCasp3MUT protein (TAT-“D” site-p 17 domain-“A” site-p12 domain) alone or in combination with TAT-HIV Pr (Pr) protein as indicated and immunoblotted with anti-Caspase-3 antibodies specific for the p17 domain. TAT-D-p17-A, cleaved product of TAT-Casp3 containing the N′ terminal HIV A half site.
as §1

[5] = 50-100 nM, uninfected Jurkat T cells, 18 hr post-addition

Molecule | Intracellular Concentration (Jurkat T-cells) [X] | Rate Compared to TAT (Jurkat T-cells) | other results
1 (AKIWFQNRRMKWKKEN; human) [compound 1] | 1 | = | 
2 (YGRKKRRQRRR; human) [compound 2] | 1 | = | 
3 (YARKARRQARR; human) [compound 3] | 10 | = | 
4 (YARAAARQARA; human) [compound 4] | 5 | = | 
5 (YARAARRAARR; human) [compound 5] | 10 | = | 
6 (YARAARRAARA; human) [compound 6] | 5 | = | 
7 (YARRRRRRRRR; human) [compound 7] | 5 | = | 
8 (YAAARRRRRRR; human) [compound 8] | 5 | = | 
10 (CTERQANFLGKIWP; human) [compound 10] | 1 | < | 
CC(C)c1nc(CN(C)C(=O)N[C@H](C(=O)N[C@@H](Cc2ccccc2)C[C@H](O)[C@H](Cc2ccccc2)NC(=O)OCc2cncs2)C(C)C)cs1 [Ritonavir, reference compound] |  |  | effect of pretreatment on TAT-Casp3WT killing of HIV infected cells [1]: protection from TAT-Casp3WT induced apoptosis; also recorded: protects infected cells; effect of the protease inhibitor on TAT-CPP32 wild type killing (Jurkat T cells [2]; added to TAT-CPP32 wild type plus TAT-Protease experiment): loss of specific TAT-CPP32 wild type killing; effect on the ability of TAT-CPP32 to kill infected cells ([3]; about 1 μg/ml Ritonavir added after transduction, about 18 hours): essentially blocked
RQIKIWFQNRRMKWKK [SEQ ID NO. 10, reference compound] |  |  | transduction rate relative to the TAT peptide (in words) (Jurkat T-cells): slower transduction rate
B1 |  |  | cells transduced (Jurkat T cells [4]): 100%; cleavage at the HIV cleavage site when co-transduced with TAT-HIV Pr (HIV Protease; 100 nM substrate, 50 nM TAT-HIV Pr, Jurkat T cells, immunoblot): specific substrate cleavage
B2 |  |  | cytotoxicity when added alone (Jurkat T cells [2]; [5]): minimal cytotoxicity; loss of viable cells when added plus TAT-Protease (Jurkat T cells [2]; [5]): not; killing of HIV-infected cells ([3]; about 35 to 45 nanomoler, about 18 hours post-transduction): not capable of killing
B3 |  |  | preference between HIV A site and D site (HIV Protease; co-transduction with TAT-HIV Pr): HIV A site was preferentially cleaved over
